The source of these data is patent US4590061A, “Antimicrobial plaque disclosing agent” (priority 1985, dated 1986).

SMILES strings stand for the structures. Like-named read-outs stand apart in the source and are kept apart here.

The nature of data set [1]: In vivo plaque retention of sanguinarine (HPLC). From the text: (§1) This was the oral rinse used for the tests described in Tables I, II, and III.
Data set [2] is classed as in vivo.
Description: This would indicate that the retention of sanguinarine in plaque may be responsible for its clinical effectiveness in plaque assays, and that plaque may serve as a reservoir for sanguinarine.
as §1

Data set [3] can be described thus: Approximate retention times in oral tissues. From the text:
The approximate retention times in oral tissues of six alkaloids found in extracts from Sanguinaria canadensis is shown in Table IV.

Data set [4] is described as follows: Visual plaque disclosure scoring in healthy volunteers (Table I). Type of data set: in vivo. Particulars: for Mean Plaque Area Score, 1 Hour later / Mean Plaque Area Score, Baseline: visual assessment. The method, then: Sanguinarine chloride was compared to two standard disclosing dyes, erythrosine and sodium fluorescein. At weekly interval healthy volunteers underwent a 12-24 hour, no oral hygiene period. Subjects then used one of the following: erythrosine, sodium flourescein, or sanguinarine chloride. Subjects rinsed two times with 15 ml. of the rinse, while the erythrosine and sodium fluorescein were used according to customary practice. Color was evaluated under ambient light after erythrosine, under ambient light for sodium fluorescein, and under longwave UV fluorescent light for sanguinarine. The color was scored for location, amount, and area.
All of the disclosing agents colored soft dental deposits at gingival margins and at the dorsal surface of the tongue. […] Mean values of plaque were measured for all disclosants.
as §1

Data set [5] concerns human dental plaque forming microorganisms. Put plainly: Reduction of dental plaque / inactivation of plaque forming microorganisms in vitro. In kind it is cell-based.
Data set [6] deals with variety of microorganism. Put plainly: Antimicrobial properties (general statement). Type of data set: cell-based.
The mark [7] stands for this setting: human, in vivo, po, In Vivo Plaque Retention of Sanguinarine.
[8] abbreviates: alkaloids found in extracts from Sanguinaria canadensis.

With `C[n+]1cc2c3c(ccc2c2ccc4cc5c(cc4c21)OCO5)OCO3` [Sanguinarine], the “level in plaque versus in vitro minimum inhibitory concentrations” value in data set [1] (HPLC, plaque) is on record as “much higher in vitro minimum inhibitory concentrations”. The “In Vivo Plaque Retention of Sanguinarine” value in data set [1] (human, in vivo, po, 1 h) is reported as 46 ug/g of wet plaque. Besides, in data set [1] (setting [7]), the concentration at 1 h is 56000 ng/g and the concentration at 2 h turned out to be 27000 ng/g. In data set [2], the “levels in saliva relative to anti-glycolytic effect” value is listed as “high enough to exert an anti-glycolytic effect on saliva”. Besides, the “Approximate Retention time (in oral tissues)” value (“Approximate Retention time” for short) in data set [3] (setting [8]) was 9.5 to 10.0 min.

Consider `C[n+]1cc2c3c(ccc2c2ccc4cc5c(cc4c21)OCO5)OCO3` [Sanguinarine chloride], for which, in data set [4] (sanguinarine chloride mouthwash), the plaque disclosure entry is on record as “disclosed plaque effectively”. The duration of disclosure result in data set [4] (versus erythrosine and sodium fluorescein) is “lasted significantly longer than for the other two disclosing dyes”. In addition, in data set [4], the “Mean Plaque Area Score, 1 Hour later” value is 2.86 ± 0.26 and the “Mean Plaque Area Score, Baseline” value is 2.87 ± 0.23. Moreover, the killing at 25 µg/mL in data set [5] (Homo sapiens, 25 micrograms per milliliter, read-out: reduction of dental plaque by inactivating plaque forming microorganisms) was 100%. Further, in data set [5] (in vitro, versus chlorhexidine (Hibitane)), the “comparison with chlorhexidine in inhibition of human dental plaque forming microorganisms” value is “compated favorably in vitro with chlorhexidine”. For the same compound, the antimicrobial properties entry in data set [6] is “strong antimicrobial properties”.

As for `COc1cc2c(c3c[n+](C)c4c5cc6c(cc5ccc4c13)OCO6)OCO2` [Chelirubine], the “Approximate Retention time” value in data set [3] (setting [8]) was around 7.5 min.

With `COc1ccc2c(c[n+](C)c3c4cc5c(cc4ccc23)OCO5)c1OC` [Chelerythrine], the “Approximate Retention time” value in data set [3] was in the range of 16.5 to 17.0 min.

Regarding `O=C1OC2(c3ccc(O)cc3Oc3cc(O)ccc32)c2ccccc21` [Sodium Fluorescein, reference compound], in data set [4], the “Mean Plaque Area Score, 1 Hour later” value came out at 1.74 ± 0.45 and the “Mean Plaque Area Score, Baseline” value is 2.84 ± 0.22.

Turning to `COc1cc(OC)c2c(c[n+](C)c3c4cc5c(cc4ccc23)OCO5)c1OC` [Chelilutine], the “Approximate Retention time” value in data set [3] (setting [8]) lay in the range of 15.5 to 16.0 min.

In the case of `COc1cc2ccc3c4c(OC)cc5c(c4c[n+](C)c3c2cc1OC)OCO5` [Sanguirubine], in data set [3] (setting [8]), the “Approximate Retention time” value was in the range of 12.5 to 13.0 min.

`COc1cc2ccc3c4c(OC)cc(OC)c(OC)c4c[n+](C)c3c2cc1OC` [Sanguilutine]: the “Approximate Retention time” value in data set [3] (setting [8]) fell in the range of 18.5 to 19.0 min.

As to `O=C1OC2(c3ccccc31)c1cc(I)c(O)c(I)c1Oc1c2cc(I)c(O)c1I` [Erythrosine, reference compound], in data set [4], the “Mean Plaque Area Score, 1 Hour later” value is 2.18 ± 0.5 and the “Mean Plaque Area Score, Baseline” value is 2.86 ± 0.43.
